In patent US10344014B2, “Amorphous form of tetracyclic compound” (Chugai Seiyaku Kabushiki Kaisha, priority 2014, dated 2019):

Tests used:
Type in all cases: physicochemical
[1] = Solubility of compound A (form I crystals) in solvents (Example 2)
Method: Solubility of 9-ethyl-6,6-dimethyl-8-(4-morpholin-4-yl-piperidin-1-yl)-11-oxo-6,11-dihydro-5H-benzo[b]carbazole-3-carbonitrilemonohydrochloride (hereinafter, a compound A) to each solvent was evaluated.
5 mL of each of the solvents described in Table 5 was added to 5 mg of form I crystals of the compound A. When undissolved crystals were observed, the mixture was stirred at room temperature and the crystals were dissolved using ultrasound (step 1). After the processing described, when undissolved crystals were observed the mixture was further stirred in a water bath at about 50° C. (step 2).
When the crystals were dissolved completely, the form I crystals of the compound A were further added (step 3).
The procedure of the steps 1 to 3 was repeated.
For CH2Cl2, the step 2 and the later step were performed at room temperature.

[2] = Stability test of the amorphous form, X-ray powder diffraction after storage (Example 4); set-up: key to State of the amorphous form after storage (X-ray powder diffraction peak): ◯: no peak of diffraction angle; X: clear peak of diffraction angle
Method: The amorphous form of 9-ethyl-6,6-dimethyl-8-(4-morpholin-4-yl-piperidin-1-yl)-11-oxo-6,11-dihydro-5H-benzo[b]carbazole-3-carbonitrilemonohydrochloride was stored under a certain condition and transition of the state of the amorphous form of the test compound was analyzed using. X-ray power diffraction as in the Test example 1.

[3] = Solubility by shake flask method, 37° C. (Example 6)
Method: Solubility of the amorphous form and form I crystals of 9-ethyl-6,6-dimethyl-8-(4-morpholin-4-yl-piperidin-1-yl)-11-oxo-6,11-dihydro-5H-benzo[b]carbazole-3-carbonitrilemonohydrochloride was examined using a shake flask method (37° C.).

[4] = Acetate buffer pH 4.5, equilibration 1 hour
[5] = Acetate buffer pH 4.5, equilibration 24 hours, limit of quantitation 0.0004 mg/mL
[6] = First solution for dissolution test (Japanese Pharmacopoeia, 16th edition), equilibration 1 hour
[7] = First solution for dissolution test (Japanese Pharmacopoeia, 16th edition), equilibration 24 hours
[8] = Phosphate buffer pH 8.0, equilibration 1 hour, limit of quantitation 0.0004 mg/mL
[9] = Phosphate buffer pH 8.0, equilibration 24 hours, limit of quantitation 0.0004 mg/mL
[10] = Simulated intestinal fluid (SIFsp), equilibration 1 hour, limit of quantitation 0.0004 mg/mL
[11] = Simulated intestinal fluid (SIFsp), equilibration 24 hours, limit of quantitation 0.0004 mg/mL
[12] = Solution for dissolution test (4% Triton-X100 added to the first solution for dissolution test), equilibration 1 hour
[13] = Solution for dissolution test (4% Triton-X100 added to the first solution for dissolution test), equilibration 24 hours

In the case of `CCc1cc2c(cc1N1CCC(N3CCOCC3)CC1)C(C)(C)c1[nH]c3cc(C#N)ccc3c1C2=O.Cl` [compound A, 9-ethyl-6,6-dimethyl-8-(4-morpholin-4-yl-piperidin-1-yl)-11-oxo-6,11-dihydro-5H-benzo[b]carbazole-3-carbonitrilemonohydrochloride], the “Solubility of compound A in solvent (dissolved or not)” value ([1]; 1,4-dioxane, 1 mg/mL, about 50° C. while stirring) is reported as “N/N (N: not dissolved)”, the “Solubility of compound A in solvent (dissolved or not)” value ([1]; 1,4-dioxane, 1 mg/mL, room temperature) is reported as “N/N (N: not dissolved)” and the “Solubility of compound A in solvent (dissolved or not)” value ([1]; 70% EtOH, 1 mg/mL, room temperature) is reported as “Y/— (Y: dissolved)”. For the same compound, the “Solubility of compound A in solvent (dissolved or not)” value ([1]; 70% EtOH, 2 mg/mL, room temperature) was “Y/— (Y: dissolved)”, the “Solubility of compound A in solvent (dissolved or not)” value ([1]; 70% EtOH, 4 mg/mL, room temperature) was “Y/— (Y: dissolved)” and the “Solubility of compound A in solvent (dissolved or not)” value ([1]; 70% EtOH, 6 mg/mL, about 50° C. while stirring) was “Y (Y: dissolved)”. The “Solubility of compound A in solvent (dissolved or not)” value ([1]; 70% EtOH, 6 mg/mL, room temperature) was “N (N: not dissolved)”, the “Solubility of compound A in solvent (dissolved or not)” value ([1]; 70% MeCN, 1 mg/mL, room temperature) was “Y/— (Y: dissolved)” and the “Solubility of compound A in solvent (dissolved or not)” value ([1]; 70% MeCN, 2 mg/mL, room temperature) was “Y/— (Y: dissolved)”. For the same compound, the “Solubility of compound A in solvent (dissolved or not)” value ([1]; 70% MeCN, 4 mg/mL, room temperature) was “Y/— (Y: dissolved)”, the “Solubility of compound A in solvent (dissolved or not)” value ([1]; 70% MeCN, 6 mg/mL, room temperature) was “Y/— (Y: dissolved)” and the “Solubility of compound A in solvent (dissolved or not)” value ([1]; 70% MeCN, 8 mg/mL, room temperature) was “Y/— (Y: dissolved)”. The “Solubility of compound A in solvent (dissolved or not)” value ([1]; 70% MeCN, 10 mg/mL, about 50° C. while stirring, *formation of solids was observed inside the test tube) was “Y (Y: dissolved)”, the “Solubility of compound A in solvent (dissolved or not)” value ([1]; 70% MeCN, 10 mg/mL, room temperature) was “N (N: not dissolved)” and the “Solubility of compound A in solvent (dissolved or not)” value ([1]; 70% MeOH, 1 mg/mL, room temperature) was “Y/— (Y: dissolved)”. The “Solubility of compound A in solvent (dissolved or not)” value ([1]; 70% MeOH, 2 mg/mL, room temperature) was “Y/— (Y: dissolved)”, the “Solubility of compound A in solvent (dissolved or not)” value ([1]; 70% MeOH, 4 mg/mL, about 50° C. while stirring) was “Y (Y: dissolved)” and the “Solubility of compound A in solvent (dissolved or not)” value ([1]; 70% MeOH, 4 mg/mL, room temperature) was “N (N: not dissolved)”. The “Solubility of compound A in THF (dissolved or not)” value ([1]; 70% THF, 1 mg/mL, room temperature) was “Y/— (Y: dissolved)”, the “Solubility of compound A in THF (dissolved or not)” value ([1]; 70% THF, 6 mg/mL, room temperature) was “Y/— (Y: dissolved)” and the “Solubility of compound A in THF (dissolved or not)” value ([1]; 70% THF, 8 mg/mL, room temperature) was “Y/— (Y: dissolved)”. The “Solubility of compound A in THF (dissolved or not)” value ([1]; 70% THF, 10 mg/mL, room temperature) was “Y/— (Y: dissolved)”, the “Solubility of compound A in THF (dissolved or not)” value ([1]; 70% THF, 12 mg/mL, room temperature) was “Y/— (Y: dissolved)” and the “Solubility of compound A in THF (dissolved or not)” value ([1]; 70% THF, 14 mg/mL, room temperature) was “Y/— (Y: dissolved)”. For the same compound, the “Solubility of compound A in solvent (dissolved or not)” value ([1]; 70% acetone, 1 mg/mL, room temperature) was “Y/— (Y: dissolved)”, the “Solubility of compound A in solvent (dissolved or not)” value ([1]; 70% acetone, 2 mg/mL, room temperature) was “Y/— (Y: dissolved)” and the “Solubility of compound A in solvent (dissolved or not)” value ([1]; 70% acetone, 4 mg/mL, room temperature) was “Y/— (Y: dissolved)”. The “Solubility of compound A in solvent (dissolved or not)” value ([1]; 70% acetone, 6 mg/mL, room temperature) was “Y/— (Y: dissolved)”, the “Solubility of compound A in solvent (dissolved or not)” value ([1]; 70% acetone, 8 mg/mL, about 50° C. while stirring) was “Y (Y: dissolved)” and the “Solubility of compound A in solvent (dissolved or not)” value ([1]; 70% acetone, 8 mg/mL, room temperature) was “N (N: not dissolved)”. The “Solubility of compound A in THF (dissolved or not)” value ([1]; 80% THF, 1 mg/mL, room temperature) was “Y/— (Y: dissolved)”, the “Solubility of compound A in THF (dissolved or not)” value ([1]; 80% THF, 4 mg/mL, room temperature) was “Y/— (Y: dissolved)” and the “Solubility of compound A in THF (dissolved or not)” value ([1]; 80% THF, 6 mg/mL, room temperature) was “Y/— (Y: dissolved)”. The “Solubility of compound A in THF (dissolved or not)” value ([1]; 80% THF, 8 mg/mL, room temperature) was “Y/— (Y: dissolved)”, the “Solubility of compound A in THF (dissolved or not)” value ([1]; 80% THF, 10 mg/mL, room temperature) was “Y/— (Y: dissolved)” and the “Solubility of compound A in THF (dissolved or not)” value ([1]; 80% THF, 12 mg/mL, room temperature) was “Y/— (Y: dissolved)”. The “Solubility of compound A in THF (dissolved or not)” value ([1]; 90% THF, 1 mg/mL, room temperature) was “Y/— (Y: dissolved)”, the “Solubility of compound A in THF (dissolved or not)” value ([1]; 90% THF, 3 mg/mL, room temperature) was “Y/— (Y: dissolved)” and the “Solubility of compound A in THF (dissolved or not)” value ([1]; 90% THF, 5 mg/mL, about 50° C. while stirring) was “N/N (N: not dissolved)”. The “Solubility of compound A in THF (dissolved or not)” value ([1]; 90% THF, 5 mg/mL, room temperature) was “N/N (N: not dissolved)”, the “Solubility of compound A in THF (dissolved or not)” value ([1]; 100% THF, 1 mg/mL, about 50° C. while stirring) was “N/N (N: not dissolved)” and the “Solubility of compound A in THF (dissolved or not)” value ([1]; 100% THF, 1 mg/mL, room temperature) was “N/N (N: not dissolved)”. The “Solubility of compound A in solvent (dissolved or not)” value ([1]; CH2Cl2, 1 mg/mL, room temperature) was “N/— (N: not dissolved)”, the “Solubility of compound A in solvent (dissolved or not)” value ([1]; DMSO, 1 mg/mL, room temperature) was “Y/— (Y: dissolved)” and the “Solubility of compound A in solvent (dissolved or not)” value ([1]; DMSO, 2 mg/mL, room temperature) was “Y/— (Y: dissolved)”. The “Solubility of compound A in solvent (dissolved or not)” value ([1]; DMSO, 4 mg/mL, about 50° C. while stirring) was “Y (Y: dissolved)”, the “Solubility of compound A in solvent (dissolved or not)” value ([1]; DMSO, 4 mg/mL, room temperature) was “N (N: not dissolved)” and the “Solubility of compound A in solvent (dissolved or not)” value ([1]; EtOAc, 1 mg/mL, about 50° C. while stirring) was “N/N (N: not dissolved)”. The “Solubility of compound A in solvent (dissolved or not)” value ([1]; EtOAc, 1 mg/mL, room temperature) was “N/N (N: not dissolved)”, the “Solubility of compound A in solvent (dissolved or not)” value ([1]; t-BuOH, 1 mg/mL, about 50° C. while stirring) was “N/N (N: not dissolved)” and the “Solubility of compound A in solvent (dissolved or not)” value ([1]; t-BuOH, 1 mg/mL, room temperature) was “N/N (N: not dissolved)”.

With `CCc1cc2c(cc1N1CCC(N3CCOCC3)CC1)C(C)(C)c1[nH]c3cc(C#N)ccc3c1C2=O.Cl` [Amorphous, 9-ethyl-6,6-dimethyl-8-(4-morpholin-4-yl-piperidin-1-yl)-11-oxo-6,11-dihydro-5H-benzo[b]carbazole-3-carbonitrilemonohydrochloride] the “Physical stability in accelerated test (in words)” value ([2]; 6 months, 40° C. and 75% RH, sealed condition) was “hardly crystallized and physically stable”, the “Physical stability in long-term stability test (in words)” value ([2]; 12 months, 30° C. and 75% RH, sealed condition) was “hardly crystallized and physically stable” and the “State of the amorphous form after storage (X-ray powder diffraction peak)” value (“State … (X-ray powder diffraction peak)” below) ([2]; 25° C./93% RH, Open, 1 month) was “X”. For the same compound, the “State … (X-ray powder diffraction peak)” value ([2]; 25° C./93% RH, Open, 3 months) was “X”, the “State … (X-ray powder diffraction peak)” value ([2]; 25° C./93% RH, Open, 6 months) was “X” and the “State … (X-ray powder diffraction peak)” value ([2]; 30° C./75% RH, Sealed, 3 months) was “◯”. For the same compound, the “State … (X-ray powder diffraction peak)” value ([2]; 30° C./75% RH, Sealed, 6 months) was “◯”, the “State … (X-ray powder diffraction peak)” value ([2]; 30° C./75% RH, Sealed, 12 months) was “◯” and the “State … (X-ray powder diffraction peak)” value ([2]; 40° C./75% RH, Sealed, 1 month) was “◯”. The “State … (X-ray powder diffraction peak)” value ([2]; 40° C./75% RH, Sealed, 3 months) was “◯”, the “State … (X-ray powder diffraction peak)” value ([2]; 40° C./75% RH, Sealed, 6 months) was “◯” and the Solubility [3, 4] was 0.5 µg/mL. The Solubility [3, 5] was 0.4 µg/mL, the Solubility [3, 6] was 4.5 µg/mL and the Solubility [3, 7] was 2.5 µg/mL. The Solubility [3, 8] was “<Lower than limit of”, the Solubility [3, 9] was “<Lower than limit of” and the Solubility [3, 10] was “<Lower than limit of”. The Solubility [3, 11] was “<Lower than limit of”, the Solubility [3, 12] was 1150.6 µg/mL and the Solubility [3, 13] was 1155.2 µg/mL. The Solubility ([3]; Water, equilibration 1 hour) was 59.9 µg/mL, the Solubility ([3]; Water, equilibration 24 hours) was 39.3 µg/mL and the “Solubility compared with form I crystals (in words)” value ([3]; shake flask method) was “higher than that of the form I crystals”.

For `CCc1cc2c(cc1N1CCC(N3CCOCC3)CC1)C(C)(C)c1[nH]c3cc(C#N)ccc3c1C2=O.Cl` [Form I crystal, 9-ethyl-6,6-dimethyl-8-(4-morpholin-4-yl-piperidin-1-yl)-11-oxo-6,11-dihydro-5H-benzo[b]carbazole-3-carbonitrilemonohydrochloride], the Solubility [3, 4] was 0.4 µg/mL, the Solubility [3, 5] was “<Lower than limit of” and the Solubility [3, 6] was 1.2 µg/mL. The Solubility [3, 7] was 1.3 µg/mL, the Solubility [3, 8] was “<Lower than limit of” and the Solubility [3, 9] was “<Lower than limit of”. The Solubility [3, 10] was “<Lower than limit of”, the Solubility [3, 11] was “<Lower than limit of” and the Solubility [3, 12] was 364.1 µg/mL. It also gave a Solubility [3, 13] of 410.2 µg/mL, a Solubility ([3]; Water, equilibration 1 hour) of 28.6 µg/mL and a Solubility ([3]; Water, equilibration 24 hours) of 25.1 µg/mL.
